This passage reports MIC, MNTC and Activity results from ChEMBL document CHEMBL3045118, “Synthesis and biological activities of new Mannich bases of chlorokojic acid derivatives” (Med Chem Res, 2011).

A word on the MIC: it is the lowest concentration found to suppress growth.

Values after ≈ are worked out from the molar mass of the structure shown.

Data set [1] concerns Proteus mirabilis. Put plainly: Antibacterial activity against Proteus mirabilis ATCC 7002 by microdilution method. Type of data set: functional. On the technique in general: Dilution methods test growth across graded concentrations, often in twofold steps.
In data set [2] the test system is Klebsiella pneumoniae. Kind of data set: Antibacterial activity against ESbetaL positive trimethoprim-sulfamethoxazole, amoxicillin clavulonat, cefriaxon, cephepim, aztreonam-resistant Klebsiella pneumoniae by microdilution method. In kind it is functional.
Data set [3] is described as follows: Cytotoxicity against Bos taurus (bovine) MDBK cells assessed as maximum non-toxic concentration. Type of data set: cell-based. The settings on record: cattle, read-out: MNCC.
Data set [4] deals with Acinetobacter baumannii. Kind of data set: Antibacterial activity against Acinetobacter baumannii RSKK 02026 by microdilution method. Type of data set: functional.
Data set [5] has as its system Klebsiella pneumoniae. Kind of data set: Antibacterial activity against Klebsiella pneumoniae RSKK 574 by microdilution method. In kind it is functional.
Data set [6] concerns Staphylococcus aureus. Kind of data set: Antibacterial activity against oxacillin, gentamicin, aztreonam, trimethoprim-sulfamethoxazole-resistant Staphylococcus aureus by microdilution method. Type of data set: functional.
The subject of data set [7] is Enterococcus faecalis. Kind of data set: Antibacterial activity against Enterococcus faecalis ATCC 29212 by microdilution method. In kind it is functional.
Data set [8] deals with Bacillus subtilis. Put plainly: Antibacterial activity against ceftriaxon-resistant Bacillus subtilis by microdilution method. In kind it is functional.
Data set [9] is described as follows: Cytotoxicity against Chlorocebus aethiops (African green monkey) Vero cells assessed as maximum non-toxic concentration. Conditions: chlorocebus sabaeus, read-out: MNCC. Type of data set: cell-based.
A further data set deals with Candida parapsilosis. Put plainly: Antifungal activity against Candida parapsilosis ATCC 22019 by microdilution method. Type of data set: functional. Conditions: Lodderomyces parapsilosis.
Data set [10] relates to Proteus mirabilis. Kind of data set: Antibacterial activity against ESbetaL positive rimethoprim-sulfamethoxazole, cefepime, tazobactam-resistant Proteus mirabilis by microdilution method. In kind it is functional.
Data set [11] relates to Enterococcus faecalis. Put plainly: Antibacterial activity against cephalosporins and beta-lactam-resistant Enterococcus faecalis by microdilution method. In kind it is functional.
In data set [12] the test system is Staphylococcus aureus. Put plainly: Antibacterial activity against Staphylococcus aureus ATCC 25923 by microdilution method. Type of data set: functional.
Data set [13] concerns Human alphaherpesvirus 1. Put plainly: Antiviral activity against Human herpesvirus 1 infected bovine MDBK cells assessed as concentration required to cause minimum inhibition of virus-induced cytopathic effect. In kind it is functional.
The test system of data set [14] is Human respirovirus 3. Kind of data set: Antiviral activity against Human parainfluenza virus 3 infected African green monkey Vero cells assessed as concentration required to cause maximum inhibition of virus-induced cytopathic effect. In kind it is functional.
In data set [15] the test system is Escherichia coli. Put plainly: Antibacterial activity against ESbetaL positive trimethoprim-sulfamethoxazole, cefepime, tazobactam-resistant Escherichia coli isolate by microdilution method. Type of data set: functional.
For data set [16], the system named is Acinetobacter baumannii. Put plainly: Antibacterial activity against trimethoprim-sulfamethoxazole, cefepime-resistant Acinetobacter baumannii by microdilution method. In kind it is functional.
The test system of data set [17] is Human alphaherpesvirus 1. Put plainly: Antiviral activity against Human herpesvirus 1 infected bovine MDBK cells assessed as concentration required to cause maximum inhibition of virus-induced cytopathic effect. In kind it is functional. In general terms: Protection from cytopathic effect is a common read-out in antiviral testing.
Data set [18] concerns Pseudomonas aeruginosa. Kind of data set: Antibacterial activity against Pseudomonas aeruginosa ATCC 10145 by microdilution method. In kind it is functional.
Data set [19] has as its system Bacillus subtilis. Put plainly: Antibacterial activity against Bacillus subtilis ATCC 6633 by microdilution method. In kind it is functional.
In the next data set the test system is Candida albicans. Put plainly: Antifungal activity against Candida albicans ATCC 10231 by microdilution method. Type of data set: functional.
For data set [20], the system named is Escherichia coli. Put plainly: Antibacterial activity against Escherichia coli ATCC 35218 by microdilution method. In kind it is functional.
Data set [21] relates to Pseudomonas aeruginosa. Kind of data set: Antibacterial activity against trimethoprim-sulfamethoxazole, tazobactam-resistant Pseudomonas aeruginosa by microdilution method. Type of data set: functional.
Data set [22] has as its system Human respirovirus 3. Kind of data set: Antiviral activity against Human parainfluenza virus 3 infected African green monkey Vero cells assessed as concentration required to cause minimum inhibition of virus-induced cytopathic effect. Type of data set: functional.

Consider `O=c1cc(CCl)oc(CN2CCN(c3ccccc3F)CC2)c1O`, for which the MIC against Proteus mirabilis [1] came out at 32 µg/mL (≈ 90.7 µM); against Klebsiella pneumoniae [2], 64 µg/mL (≈ 181 µM); in the data set with Acinetobacter baumannii [4] it was 32 µg/mL (≈ 90.7 µM); with Klebsiella pneumoniae [5] it was 16 µg/mL (≈ 45.4 µM); with Staphylococcus aureus [6], 64 µg/mL (≈ 181 µM); against Enterococcus faecalis [7] it was 16 µg/mL (≈ 45.4 µM). In addition, the MIC in the data set on Bacillus subtilis [8] was determined as 16 µg/mL (≈ 45.4 µM); in the data set on Candida parapsilosis, 8 µg/mL (≈ 22.7 µM); in the data set with Proteus mirabilis [10], 64 µg/mL; in the data set on Enterococcus faecalis [11], 32 µg/mL (≈ 90.7 µM); in the data set with Staphylococcus aureus [12], 16 µg/mL (≈ 45.4 µM); with Escherichia coli [15], 64 µg/mL. Besides, the MIC was determined as 64 µg/mL (≈ 181 µM) against Acinetobacter baumannii [16]; 32 µg/mL (≈ 90.7 µM) in the data set with Pseudomonas aeruginosa [18]; 8 µg/mL (≈ 22.7 µM) against Bacillus subtilis [19]; 8 µg/mL (≈ 22.7 µM) against Candida albicans; 16 µg/mL (≈ 45.4 µM) with Escherichia coli [20]; 64 µg/mL with Pseudomonas aeruginosa [21]. The MNTC in data set [3] and in [9] was 0.8 µg/mL each time. For the same compound, the Activity is 0.05 µg/mL with Human alphaherpesvirus 1 [13], 0.2 µg/mL with Human respirovirus 3 [14], 0.8 µg/mL in the data set on Human alphaherpesvirus 1 [17] and 0.025 µg/mL with Human respirovirus 3 [22].

Turning to `O=c1cc(CCl)oc(CN2CCN(c3ccc(F)cc3)CC2)c1O`, the MIC in the data set on Proteus mirabilis [1] stood at 16 µg/mL (≈ 45.4 µM); against Klebsiella pneumoniae [2], 64 µg/mL (≈ 181 µM); in the data set on Acinetobacter baumannii [4], 32 µg/mL (≈ 90.7 µM); in the data set with Klebsiella pneumoniae [5] it was 16 µg/mL (≈ 45.4 µM); against Staphylococcus aureus [6], 64 µg/mL (≈ 181 µM); with Enterococcus faecalis [7], 16 µg/mL (≈ 45.4 µM). The MIC with Bacillus subtilis [8] is 32 µg/mL (≈ 90.7 µM); with Candida parapsilosis, 8 µg/mL (≈ 22.7 µM); with Proteus mirabilis [10], 64 µg/mL; with Enterococcus faecalis [11], 32 µg/mL (≈ 90.7 µM); with Staphylococcus aureus [12] it was 16 µg/mL (≈ 45.4 µM); with Escherichia coli [15] it was 64 µg/mL. For the same compound, the MIC with Acinetobacter baumannii [16] was 64 µg/mL (≈ 181 µM); against Pseudomonas aeruginosa [18], 32 µg/mL (≈ 90.7 µM); in the data set on Bacillus subtilis [19], 16 µg/mL (≈ 45.4 µM); against Candida albicans, 8 µg/mL (≈ 22.7 µM); in the data set on Escherichia coli [20] it was 16 µg/mL (≈ 45.4 µM); in the data set with Pseudomonas aeruginosa [21], 64 µg/mL. In addition, the MNTC in data set [3] was 0.8 µg/mL; in data set [9] it was 1.6 µg/mL. The Activity in the data set with Human alphaherpesvirus 1 [13] was 0.05 µg/mL; in the data set with Human respirovirus 3 [14], 0.2 µg/mL; in the data set on Human alphaherpesvirus 1 [17] it was 0.8 µg/mL; in the data set with Human respirovirus 3 [22], 0.025 µg/mL.

Take `COc1ccccc1N1CCN(Cc2oc(CCl)cc(=O)c2O)CC1`: the MIC against Proteus mirabilis [1] came to 32 µg/mL (≈ 87.7 µM); with Klebsiella pneumoniae [2], 64 µg/mL (≈ 175 µM); in the data set with Acinetobacter baumannii [4], 32 µg/mL (≈ 87.7 µM); against Klebsiella pneumoniae [5], 32 µg/mL (≈ 87.7 µM); against Staphylococcus aureus [6], 128 µg/mL (≈ 351 µM); in the data set with Enterococcus faecalis [7] it was 64 µg/mL (≈ 175 µM). Moreover, the MIC was 32 µg/mL (≈ 87.7 µM) in the data set with Bacillus subtilis [8]; 8 µg/mL (≈ 21.9 µM) against Candida parapsilosis; 64 µg/mL in the data set with Proteus mirabilis [10]; 128 µg/mL (≈ 351 µM) in the data set with Enterococcus faecalis [11]; 64 µg/mL (≈ 175 µM) in the data set with Staphylococcus aureus [12]; 64 µg/mL in the data set with Escherichia coli [15]. In addition, the MIC turned out to be 64 µg/mL (≈ 175 µM) against Acinetobacter baumannii [16]; 32 µg/mL (≈ 87.7 µM) in the data set on Pseudomonas aeruginosa [18]; 16 µg/mL (≈ 43.9 µM) against Bacillus subtilis [19]; 8 µg/mL (≈ 21.9 µM) with Candida albicans; 32 µg/mL (≈ 87.7 µM) with Escherichia coli [20]; 64 µg/mL in the data set on Pseudomonas aeruginosa [21]. Also, the MNTC in [3] came out at 0.8 µg/mL; in [9], 1.6 µg/mL. Also, the Activity in the data set on Human alphaherpesvirus 1 [13] stood at 0.2 µg/mL; in the data set on Human respirovirus 3 [14] it was 0.2 µg/mL; in the data set on Human alphaherpesvirus 1 [17], 0.8 µg/mL; in the data set on Human respirovirus 3 [22], 0.05 µg/mL.

As to `O=c1cc(CCl)oc(CN2CCN(c3ccccc3Cl)CC2)c1O`, the MIC was 64 µg/mL (≈ 173 µM) in the data set on Proteus mirabilis [1]; more than 128 µg/mL in the data set with Klebsiella pneumoniae [2]; 64 µg/mL (≈ 173 µM) in the data set with Acinetobacter baumannii [4]; 64 µg/mL (≈ 173 µM) against Klebsiella pneumoniae [5]; more than 128 µg/mL against Staphylococcus aureus [6]; 8 µg/mL (≈ 21.7 µM) against Enterococcus faecalis [7]. Further, the MIC against Bacillus subtilis [8] is more than 128 µg/mL; in the data set with Candida parapsilosis, 16 µg/mL (≈ 43.3 µM); in the data set with Proteus mirabilis [10] it was more than 128 µg/mL; in the data set on Enterococcus faecalis [11], more than 128 µg/mL; in the data set on Staphylococcus aureus [12], 8 µg/mL (≈ 21.7 µM); in the data set with Escherichia coli [15], more than 128 µg/mL. Further, the MIC against Acinetobacter baumannii [16] was more than 128 µg/mL; against Pseudomonas aeruginosa [18] it was 64 µg/mL (≈ 173 µM); in the data set with Bacillus subtilis [19] it was 16 µg/mL (≈ 43.3 µM); with Candida albicans, 16 µg/mL (≈ 43.3 µM); against Escherichia coli [20], 64 µg/mL (≈ 173 µM); in the data set with Pseudomonas aeruginosa [21], more than 128 µg/mL. In addition, the MNTC was 1.6 µg/mL in [3] and 0.4 µg/mL in data set [9]. Moreover, the Activity in the data set with Human alphaherpesvirus 1 [13] came out at 0.1 µg/mL; with Human respirovirus 3 [14] it was 0.4 µg/mL; in the data set on Human alphaherpesvirus 1 [17] it was 0.4 µg/mL; in the data set with Human respirovirus 3 [22], 0.2 µg/mL.

In the case of `O=c1cc(CCl)oc(CN2CCN(c3cccc(C(F)(F)F)c3)CC2)c1O`, the MIC stood at 16 µg/mL (≈ 39.7 µM) in the data set on Proteus mirabilis [1]; 64 µg/mL (≈ 159 µM) in the data set on Klebsiella pneumoniae [2]; 32 µg/mL (≈ 79.4 µM) against Acinetobacter baumannii [4]; 16 µg/mL (≈ 39.7 µM) in the data set on Klebsiella pneumoniae [5]; 64 µg/mL (≈ 159 µM) against Staphylococcus aureus [6]; 16 µg/mL (≈ 39.7 µM) with Enterococcus faecalis [7]. Moreover, the MIC against Bacillus subtilis [8] was found to be 64 µg/mL (≈ 159 µM); in the data set on Candida parapsilosis, 8 µg/mL (≈ 19.9 µM); in the data set on Proteus mirabilis [10] it was 64 µg/mL; in the data set on Enterococcus faecalis [11], 32 µg/mL (≈ 79.4 µM); against Staphylococcus aureus [12], 32 µg/mL (≈ 79.4 µM); with Escherichia coli [15], 64 µg/mL. The minimum inhibitory concentration (MIC) was found to be 64 µg/mL (≈ 159 µM) in the data set with Acinetobacter baumannii [16]; 16 µg/mL (≈ 39.7 µM) against Pseudomonas aeruginosa [18]; 32 µg/mL (≈ 79.4 µM) against Bacillus subtilis [19]; 8 µg/mL (≈ 19.9 µM) against Candida albicans; 16 µg/mL (≈ 39.7 µM) in the data set on Escherichia coli [20]; 64 µg/mL in the data set with Pseudomonas aeruginosa [21]. The MNTC in data set [3] and in [9] was 0.8 µg/mL throughout. Also, the Activity in the data set on Human alphaherpesvirus 1 [13] was 0.05 µg/mL; with Human respirovirus 3 [14], 0.4 µg/mL; in the data set with Human alphaherpesvirus 1 [17], 0.8 µg/mL; in the data set with Human respirovirus 3 [22], 0.025 µg/mL.
